Where two headings read alike, the source gives them in different places.
Columns and labels:
[1] = test system: cyclic AMP phosphodiesterase; assay: inhibition of cyclic AMP phosphodiesterase, human platelet; type: biochemical; conditions: 50% inhibition of cyclic AMP phosphodiesterase; read-out: I50, Platelet (human)
Protocol: (§1) The procedure of the experiment was carried out in accordance with the method described in H. Hidaka and M. Shibuya: title "A new assay of cyclic nucleotide phosphodiesterase and its application to humans", Biochemical Medicine, (in press).

[2] = target: cyclic AMP phosphodiesterase; assay: inhibition of cyclic AMP phosphodiesterase, aortic wall media (rabbit); type: biochemical; conditions: 50% inhibition of cyclic AMP phosphodiesterase; read-out: I50, Aortic Wall, Media (rabbit)
Protocol: as §1

human platelet = human platelet aggregation in vitro induced by ADP or adrenaline (CPRP); type: cell-based; conditions: 200 s
Protocol: Samples of human CPRP (citrated platelet-rich plasma) were incubated at 37°C. for 200 sec. with 1/10 volume of saline containing various amount of the compound to be tested. To the mixture was then added ADP (3μMole) or adrenaline (1 μg/ml). Intensity of primary and secondary aggregation was measured with a platelet aggregation meter (Chrono-Log, Model 300).
Intensity of ADP- or adrenaline-induced aggregation of each sample, which was incubated with the compound, was compared with that of the same sample incubated with saline. The ratio was expressed as a percentage of intensity of aggregation with the compound against one with saline.
The intensity of primary and secondary aggregation of platelets was measured by the procedure described in H. Yamazaki, T. Sano, et al.; title[Platelet Functions in Thromboembolic Disorders] Thrombosis et Diatheses Haemorrhagica "in press" and the references cited therein.

aorta of rabbits = assay: prevention of cholesterol-induced atherosclerosis in rabbits (surface covered by fatty streaks in the aorta); type: in vivo, albino rabbits; conditions: rabbit aorta; oral 1 mg/Kg daily, 15 weeks, diet with 1% cholesterol; placebo 54.6±5.4
Protocol: Forty healthy albino rabbits of the same age and of the same family were used in the experiment.
After the completion of the regimen, the rabbits were killed and the percentage of the surface covered by fatty streaks was measured in each aorta of the rabbits stained with Sundan IV. The percent of the surface covered by fatty streaks in the aorta of the rabbits was measured by the procedure described in T. Shimamoto, F. Numano, T. Fujita; American Heart Journal, 71, 2216 (1966).

aortic wall of rabbits = assay: regression of preestablished cholesterol-induced atherosclerosis in rabbits (cholesterol content of the aortic wall); type: in vivo, albino rabbits; conditions: oral 1 mg/Kg daily, head prints (μg)
From the text: For the regressive test, 50 healthy albino rabbits were fed with a diet containing 1% cholesterol for 15 weeks. Five rabbits were killed at the 15th week of the cholesterol feeding and the remaining 45 rabbits were divided into 3 groups. […] Five each of the rabbits of the 3 groups were killed after 6, 10 and 20 weeks, respectively. The total contents of cholesterol in the aortic wall were estimated by gas chromatography, the results of which are shown in the Table III.
1. The total content of cholesterol in the aortic wall was measured by the procedure described in T. Shimamoto, F. Numano, T. Fujita et al.; Asian med. Journal, 8. 12 (1965) 2. […] 3. The total chloesterol contents indicated in Table III were shown in μg per one mg of the dried aortic wall. The value in the Table is the average figure for 5 rabbits

[3] = target: cyclic AMP phosphodiesterase; assay: inhibition of cyclic AMP phosphodiesterase, aortic wall intima (rabbit); type: biochemical; conditions: 50% inhibition of cyclic AMP phosphodiesterase; read-out: I50, Aortic Wall, Intima (rabbit)
Protocol: as §1

[4] = test system: spontaneously hypertensive rats; assay: hypotensive effect in spontaneously hypertensive rats; type: in vivo, rat; conditions: for Blood Pressure: 50 mg/Kg intraperitoneally
From the text: The present compounds have a unique hypotensive effect in spontaneously hypertensive rats. The spontaneously hypertensive rats, abbreviated as SH rats, are produced by selective breeding of spontaneously hypertensive rats and continuous inbreeding with hypertensive mates, and they might be acknowledged as genetically hypertensive. It is believed that SH rats have a striking similarity to human essential hypertension and their reactions can be extrapolated to this morbid condition.
In the blood pressure test, SH rats weighing 210 - 250 g and aged 13-15 weeks were used, and the compounds tested were administered intraperitoneally. Each value in the Table V hows an average figure for three rats.

in vivo = conditions: mouse, oral, mice
[5] = read-out: Inhibition ratio, primary aggregation, Adrenaline 1μg/ml
[6] = read-out: Inhibition ratio, secondary aggregation, Adrenaline 1μg/ml

In the case of Cn1c(=O)c2c(ncn2C)n(C)c1=O [caffeine], the IC50 [1] is reported as 350 µM and the IC50 [2] is reported as 460 µM.

Compound CCOC(=O)c1ccc2c(CO)n[nH]c(=O)c2c1 [7-ethoxycarbonyl-4-hydroxymethyl-1-phthalazone] has an activity at 5 µg/mL (human platelet; 5 μg/ml, intensity with compound vs saline, read-out: Inhibition ratio, primary aggregation, ADP 3 μM) of 90.5 ± 5.6%, an activity at 5 µg/mL (human platelet; 5 μg/ml, intensity with compound vs saline, read-out: Inhibition ratio, secondary aggregation, ADP 3 μM) of 84.9 ± 6.3% and an activity at 10 µg/mL (human platelet; 10 μg/ml, intensity with compound vs saline, read-out: Inhibition ratio, primary aggregation, ADP 3 μM) of 81.9 ± 5.2%. The activity at 10 µg/mL (human platelet; 10 μg/ml, intensity with compound vs saline, read-out: Inhibition ratio, secondary aggregation, ADP 3 μM) was 67.1 ± 6.3%, the activity at 20 µg/mL (human platelet; 20 μg/ml, intensity with compound vs saline, read-out: Inhibition ratio, primary aggregation, ADP 3 μM) was 77 ± 5.1% and the activity at 20 µg/mL (human platelet; 20 μg/ml, intensity with compound vs saline, read-out: Inhibition ratio, secondary aggregation, ADP 3 μM) was 58.6 ± 7.6%. For the same compound, the activity at 80 µg/mL (human platelet; 80 μg/ml, intensity with compound vs saline, read-out: Inhibition ratio, primary aggregation, ADP 3 μM) was 62.9 ± 5%, the activity at 80 µg/mL (human platelet; 80 μg/ml, intensity with compound vs saline, read-out: Inhibition ratio, secondary aggregation, ADP 3 μM) was 15.7 ± 0.4% and the activity at 5 µg/mL (human platelet; [5]) was 106 ± 6.9%. The activity at 10 µg/mL (human platelet; [5]) was 97 ± 4.1%, the activity at 20 µg/mL (human platelet; [5]) was 92.9 ± 16.9% and the activity at 5 µg/mL (human platelet; [6]) was 80.8 ± 13.9%. For the same compound, the activity at 10 µg/mL (human platelet; [6]) was 82.1 ± 9.5%, the activity at 20 µg/mL (human platelet; [6]) was 71.7 ± 13.5% and the activity at 80 µg/mL (human platelet; [6]) was 33 ± 7.1%. For the same compound, the “Percent of surface covered by fatty streaks” value (aorta of rabbits) was 28.8±3.6%, the “Cholesterol content (aortic wall, total)” value (aortic wall of rabbits; 6 weeks, placebo 32.1±3.6) was 24.6±3.0 μg/mg dry weight and the “Cholesterol content (aortic wall, total)” value (aortic wall of rabbits; 10 weeks, placebo 33.8±3.0) was 12.2±3.5 μg/mg dry weight. The “Cholesterol content (aortic wall, total)” value (aortic wall of rabbits; 20 weeks, placebo 29.5±5.4) was 6.4±2.7 μg/mg dry weight, the IC50 [1] was 57 µM and the IC50 [3] was 52 µM. The IC50 [2] was 144 µM, the “Blood Pressure” value ([4]; 1 hr) was 165 and the “Blood Pressure” value ([4]; 3 hr) was 176. The “Blood Pressure” value ([4]; 6 hr) was 180, the “Blood Pressure” value ([4]; 24 hr) was 179 and the “Blood Pressure” value ([4]; 48 hr) was 184. For the same compound, the “Blood Pressure” value ([4]; before dosing) was 178, the “hypotensive effect (in words)” value ([4]; intraperitoneal or oral doses up to 50 mg/Kg) was “did not exhibit a significant hypotensive effect” and the LD50 (in vivo) was 5000 mg/kg.
